Tested on: Dollar Spot
Experiment: Dollar Spot infestation on Bentgrass Green (field application by knapsack sprayer)
Assay type: in vivo, Sclerotinia homoeocarpa
Conditions: applied at 0, 6, 14 days
From the text: Example 1 sets forth the Dollar Spot infestation on Bentgrass Green.
A suspension concentrate composition of Compound I-1 as defined herein with and without the addition of Synergen® KN was applied to Bentgrass Green at 0, 6, and 14 days using a knapsack sprayer. Synergen® KN contains a blend of phosphate and ethoxylated alcohol compounds, such as a blend of poly(oxy-1,2-ethanediyl), α-isotridecyl-ω-hydroxy-, phosphate and ethoxylated C12-C16 alcohols.
In Table 1, untreated Bentgrass Green (1) was compared to a composition including Compound I-1 at 440 grams/hectacre (“GA/HA”) (2), a composition including Compound I-1 at 440 GA/HA+Synergen® KN at 1% by volume (3), a composition including Compound I-1 at 880 GA/HA (4), a composition including Compound I-1 at 880 GA/HA+Synergen® KN at 1% by volume (5), a composition including Compound I-1 at 1320 GA/HA (6), and composition including a Compound I-1 at 1320 GA/HA+Synergen® KN at 1% by volume (7). As set forth in Table 1, ratings were evaluated at −1, 6, 13, 22, 28, 35, and 48 days.

With `Cn1c(=O)c2sc3c(=O)n(C)c(=O)c3sc2c1=O` [Compound I-1, 2,6-dimethyl-1H,5H-[1,4]dithiino[2,3-c:5,6-c′]dipyrrole-1,3,5,7(2H,6H)-tetrone] the “Percentage of Dollar Spot” value (440 GA/HA, rating Day 6, adjuvant where present 1% by volume) was 7.5%, the “Percentage of Dollar Spot” value (440 GA/HA, rating Day 13, adjuvant where present 1% by volume) was 10.8% and the “Percentage of Dollar Spot” value (440 GA/HA, rating Day 22, adjuvant where present 1% by volume) was 12.8%. For the same compound, the “Percentage of Dollar Spot” value (440 GA/HA, rating Day 28, adjuvant where present 1% by volume) was 14.5%, the “Percentage of Dollar Spot” value (440 GA/HA, rating Day 35, adjuvant where present 1% by volume) was 19.5% and the “Percentage of Dollar Spot” value (440 GA/HA, rating Day 48, adjuvant where present 1% by volume) was 22.8%. The “Percentage of Dollar Spot” value (440 GA/HA, rating Day −1, adjuvant where present 1% by volume) was 8.3%, the “Percentage of Dollar Spot” value (880 GA/HA, rating Day 6, adjuvant where present 1% by volume) was 7.8% and the “Percentage of Dollar Spot” value (880 GA/HA, rating Day 13, adjuvant where present 1% by volume) was 10.5%. The “Percentage of Dollar Spot” value (880 GA/HA, rating Day 22, adjuvant where present 1% by volume) was 11.3%, the “Percentage of Dollar Spot” value (880 GA/HA, rating Day 28, adjuvant where present 1% by volume) was 12.5% and the “Percentage of Dollar Spot” value (880 GA/HA, rating Day 35, adjuvant where present 1% by volume) was 17%. For the same compound, the “Percentage of Dollar Spot” value (880 GA/HA, rating Day 48, adjuvant where present 1% by volume) was 20.8%, the “Percentage of Dollar Spot” value (880 GA/HA, rating Day −1, adjuvant where present 1% by volume) was 8.3% and the “Percentage of Dollar Spot” value (1320 GA/HA, rating Day 6, adjuvant where present 1% by volume) was 8.3%. The “Percentage of Dollar Spot” value (1320 GA/HA, rating Day 13, adjuvant where present 1% by volume) was 10.5%, the “Percentage of Dollar Spot” value (1320 GA/HA, rating Day 22, adjuvant where present 1% by volume) was 12.8% and the “Percentage of Dollar Spot” value (1320 GA/HA, rating Day 28, adjuvant where present 1% by volume) was 14.8%. For the same compound, the “Percentage of Dollar Spot” value (1320 GA/HA, rating Day 35, adjuvant where present 1% by volume) was 17%, the “Percentage of Dollar Spot” value (1320 GA/HA, rating Day 48, adjuvant where present 1% by volume) was 20% and the “Percentage of Dollar Spot” value (1320 GA/HA, rating Day −1, adjuvant where present 1% by volume) was 9%.

Source: patent US20130324582A1, “METHODS AND COMPOSITIONS FOR REDUCING FUNGAL INFESTATION AND IMPROVING GRASS QUALITY” (BAYER CROPSCIENCE LP, priority 2012, published 2013)
